Patent US8507219B2, “Method of treating inflammation with statins” (MUSC Foundation for Research Development, priority 1997, dated 2013)
Values joined by “and” are separate entries in the source; they are usually repeats but may differ in a detail not shown here. Equal values may be shown once. “Also recorded” adds a separate entry of the source.

Experiments:
[1] = Plasma very-long-chain fatty acids (C26:0) in X-ALD patients on lovastatin; format: in vivo, human
[2] = tested on: cholesterol synthesis in rat primary astrocytes
[3] = tested on: X-ALD fibroblasts
[4] = tested on: intracellular GSH in rat primary astrocytes; experiment: Intracellular GSH / GSSG in rat primary astrocytes; format: cell-based; details: 10 mM NAC 1 h; TNF-α or IL-1β 50 ng/ml; diamide 0.5 mM
Experimental: Measurement of reduced glutathione (GSH) concentration in rat primary astrocytes Concentration of intracellular GSH was measured using a colorimetric assay kit for GSH from RandD, USA. Briefly, 2×10^6 cells were homogenized in 500 μl of ice-cold 5% metaphosphoric acid and centrifuged at 3000 g for 10 min. Supernatants were used to assay GSH using 4-chloro-1-methyl-7-trifluoromethyl-quinolinium methylsulfate and 30% NaOH at 400 nm.
Measurement of GSH (Reduced Glutathione) and GSSG Oxidized Glutathione Concentration of intracellular reduced GSH was measured using a calorimetric assay kit for GSH from R & D Systems. Briefly, 2×10^6 cells were homogenized in 500 μl of ice-cold 5% metaphosphoric acid and centrifuged at 3000×g for 10 min. Supernatants were used to assay GSH using 4-chloro-1-methyl-7-trifluoromethylquinolinium methylsulfate and 30% NaOH at 400 nm. Concentration of GSSG was determined according to the method of Griffith (1980) after derivatization with 2-vinylpyridine for 30 min at room temperature.

[5] = tested on: rat primary microglia, oligodendrocytes and C6 glial cells; experiment: TNF-α-induced ceramide production in rat primary microglia, oligodendrocytes and C6 glial cells; format: cell-based; details: 10 mM NAC 1 h, TNF-α 50 ng/ml
[6] = tested on: rat primary oligodendrocytes; experiment: Apoptosis (DNA fragmentation, laddering) in rat primary oligodendrocytes; format: cell-based; details: 10 mM NAC 1 h; diamide 0.5 mM, TNF-α 50 ng/ml or C2-ceramide; 12 h
Experimental: Detection of DNA fragmentation Cells (1×10^6) were pelleted in an eppendorf tube by centrifugation at 1,000 rpm for 5 min, washed with PBS (pH 7.4), resuspended gently in 50 μl of a lysis buffer [200 mM NaCl, 10 mM Tris-HCl (pH 8.0), 40 mM EDTA (pH 8.0), 0.5% SDS, 400 ng RNase A/μl] and incubated at 37° C. for 1 h. The lysate received 200 μl of the digestion buffer [200 mM NaCl, 10 mM Tris-HCl (pH 8.0), 0.5% SDS, 125 ng proteinase K/μl]. The contents were mixed by inversion several times and then incubated at 50° C. for 2 h. An equal volume of a mixture phenol (pH 8.0), chloroform and isoamyl alcohol (25:24:1, v/v) was added, gently mixed for 10 min, and stored at room temperature for 2 min. […] The gel was stained with ethidium bromide and DNA-intercalated ethidium fluorescence was photographed on Polaroid film 665 (P/N) using an orange filter. […]
Detection of DNA Fragmentation Cells (1×10^6) were pelleted in an Eppendorf tube by centrifugation at 1000 rpm for 5 min, washed with phosphate-buffered saline, pH 7.4, resuspended gently in 50 μl of a lysis buffer (200 mM NaCl, 10 mM Tris-HCl, pH 8.0, 40 mM EDTA, pH 8.0, 0.5% SDS, 400 ng of RNase A/μl), and incubated at 37° C. for 1 h. […] The gel was stained with ethidium bromide, and DNA-intercalated ethidium fluorescence was photographed on Polaroid film 665 (P/N) using an orange filter. […]

[7] = individual X-ALD patients, lovastatin 20 then 40 mg per day

CC[C@H](C)C(=O)O[C@H]1C[C@@H](C)C=C2C=C[C@H](C)[C@H](CC[C@@H]3C[C@@H](O)CC(=O)O3)[C@H]21 [Lovastatin]
plasma levels of very-long-chain fatty acids (C26:0), words ([1]; five patients who continued the treatment): remained low and within the normal range for up to six months
Plasma Very-Long-Chain Fatty Acids AT 1 MO ([1]; individual X-ALD patients (one line each), lovastatin 20 mg per day two weeks, then 40 mg per day, normal controls 0.24 ± 0.13): 0.42 micrograms per milliliter and 0.37 micrograms per milliliter and 0.5 micrograms per milliliter and 0.43 micrograms per milliliter and 0.24 micrograms per milliliter and 0.3 micrograms per milliliter and 0.44 micrograms per milliliter
Plasma Very-Long-Chain Fatty Acids AT 2 MO [1, 7]: 0.41 micrograms per milliliter (2×) and 0.5 micrograms per milliliter and 0.42 micrograms per milliliter (2×) and 0.21 micrograms per milliliter and 0.34 micrograms per milliliter
Plasma Very-Long-Chain Fatty Acids AT 3 MO [1, 7]: 0.56 micrograms per milliliter and 0.3 micrograms per milliliter and 0.43 micrograms per milliliter and 0.21 micrograms per milliliter and 0.32 micrograms per milliliter and 0.36 micrograms per milliliter
Plasma Very-Long-Chain Fatty Acids AT 4 MO [1, 7]: 0.35 micrograms per milliliter and 0.34 micrograms per milliliter (2×) and 0.42 micrograms per milliliter and 0.22 micrograms per milliliter and 0.37 micrograms per milliliter
Plasma Very-Long-Chain Fatty Acids AT 5 MO [1, 7]: 0.17 micrograms per milliliter and 0.41 micrograms per milliliter (2×) and 0.26 micrograms per milliliter and 0.21 micrograms per milliliter
Plasma Very-Long-Chain Fatty Acids AT 6 MO [1, 7]: 0.17 micrograms per milliliter (3×) and 0.16 micrograms per milliliter and 0.21 micrograms per milliliter

O=C([O-])Cc1ccccc1.[Na+] [NaPA, sodium salt of phenylacetic acid]
inhibition of the synthesis of cholesterol [2]: 64±5.3%
cytotoxicity at higher doses [3]: cytotoxic to the X-ALD fibroblasts

CC(=O)N[C@@H](CS)C(=O)O [NAC, N-acetyl cysteine]
intracellular level of GSH / GSSG [4]: intracellular level of GSH did not decrease when cells were stimulated with cytokines in presence of NAC; also recorded: lack of decrease of GSH
TNF-α-induced production of ceramide [5]: potently blocked the TNF-α-induced production of ceramide in microglia, oligodendrocytes and C6 glial cells; also recorded: potently blocked the TNF-α-induced production of ceramide in microglia, oligodendrocytes, and C6 glial cells
ceramide formation and DNA fragmentation / apoptosis [6]: inhibited the induction of ceramide formation and DNA fragmentation; also recorded: had no effect on C2-ceramide-mediated apoptosis in oligodendrocytes
